For 25 compounds, IC50 results are on record in patent US10576062B2, “Carbamoyloxymethyl triazole cyclohexyl acids as LPA antagonists” (Bristol-Myers Squibb Company, priority 2016, dated 2020).

T1 sequence (Q92633 whole entry): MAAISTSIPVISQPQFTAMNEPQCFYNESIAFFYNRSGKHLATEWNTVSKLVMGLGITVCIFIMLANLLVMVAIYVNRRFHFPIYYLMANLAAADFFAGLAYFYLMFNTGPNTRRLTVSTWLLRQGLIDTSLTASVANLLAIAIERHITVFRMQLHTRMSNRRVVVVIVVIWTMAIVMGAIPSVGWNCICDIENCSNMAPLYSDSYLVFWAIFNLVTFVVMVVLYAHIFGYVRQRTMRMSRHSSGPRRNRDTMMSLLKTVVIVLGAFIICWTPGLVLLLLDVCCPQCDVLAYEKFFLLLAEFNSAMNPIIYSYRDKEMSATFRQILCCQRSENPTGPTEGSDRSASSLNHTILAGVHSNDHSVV

The assay has as its target T1, human LPA1 (Homo sapiens, UniProt Q92633).
T1 construct: expressed in transfected cells; host or cells: Chinese hamster ovary (CHO) cells
Kind of assay: LPA1 functional antagonist assay (LPA-induced calcium flux). The assay is classed as cell-based. Particulars: CHO cells overexpressing human LPA1; inhibition of calcium flux induced by 10 nM LPA; read-out: hLPA1 IC50. The method, boiled down: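 CHO cells overexpressing human LPA1, loaded with calcium dye 30 min at 37° C, were preincubated 20 min at room temperature with compound (0.08 nM–5 μM, 0.5% DMSO) in HBSS/20 mM HEPES/0.1% fatty acid-free BSA.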
Consider `COCc1nc(-c2nnn(C)c2COC(=O)N(C)CC2CCC2)ccc1O[C@H]1CCC[C@H](C(=O)O)C1` [Example 268, (1S,3 S)-3-((6-(5-((((cyclobutylmethyl)(methyl)carbamoyl)oxy)methyl)-1-methyl-1H-1,2,3-triazol-4-yl)-2-(methoxymethyl)pyridin-3-yl)oxy)cyclohexane-1-carboxylic Acid], for which the IC50 came to 103 nM.
For `CN(CC1CCC1)C(=O)OCc1c(-c2ccc(O[C@H]3CCC[C@H](C(=O)O)C3)c(C(F)(F)F)n2)nnn1C` [Example 269, (1S,3 S)-3-((6-(5-((((cyclobutylmethyl)(methyl)carbamoyl)oxy)methyl)-1-methyl-1H-1,2,3-triazol-4-yl)-2-(trifluoromethyl)pyridin-3-yl)oxy)cyclohexane-1-carboxylic Acid], the IC50 was determined as 10 nM.
On to `CCCN(C)C(=O)OCc1c(-c2ccc(O[C@H]3CCC[C@H](C(=O)O)C3)c(C#N)n2)nnn1C` [Example 270, (1S,3S)-3-((2-cyano-6-(1-methyl-5-(((methyl(propyl)carbamoyl)oxy)methyl)-1H-1,2,3-triazol-4-yl)pyridin-3-yl)oxy)cyclohexane-1-carboxylic acid], for which the IC50 is 11 nM.
Next, `CN(CC1CCC1)C(=O)OCc1c(-c2ccc(O[C@H]3CCC[C@H](C(=O)O)C3)c(C(C)(C)O)n2)nnn1C` [Example 271, (1S,3 S)-3-((6-(5-((((cyclobutylmethyl)(methyl)carbamoyl)oxy)methyl)-1-methyl-1H-1,2,3-triazol-4-yl)-2-(2-hydroxypropan-2-yl)pyridin-3-yl)oxy)cyclohexane-1-carboxylic Acid]: 225 nM; `CCCN(C)C(=O)OCc1c(-c2ccc(O[C@H]3CCC[C@H](C(=O)O)C3)c(OC)n2)nnn1C` [Example 272, (1S,3 S)-3-((2-Methoxy-6-(1-methyl-5-(((methyl(propyl)carbamoyl)oxy)methyl)-1H-1,2,3-triazol-4-yl)pyridin-3-yl)oxy)cyclohexane-1-carboxylic Acid]: 4 nM.
On to `CN(CC1CC1)C(=O)OCc1c(-c2ccc(O[C@H]3CCC[C@H](C(=O)O)C3)c(C(F)(F)F)n2)nnn1C` [Example 273, (1S,3S)-3-((6-(5-((((cyclopropylmethyl)(methyl)carbamoyl)oxy)methyl)-1-methyl-1H-1,2,3-triazol-4-yl)-2-(trifluoromethyl)pyridin-3-yl)oxy)cyclohexane-1-carboxylic acid], for which the IC50 is 7 nM.
As for `CCCN(C)C(=O)OCc1c(-c2ccc(O[C@H]3CCC[C@H](C(=O)O)C3)c(C(F)(F)F)n2)nnn1C` [Example 274, (1S,3S)-3-((6-(1-methyl-5-(((methyl(propyl)carbamoyl)oxy)methyl)-1H-1,2,3-triazol-4-yl)-2-(trifluoromethyl)pyridin-3-yl)oxy)cyclohexane-1-carboxylic acid], the figure is 28 nM; as for `CCCCN(C)C(=O)OCc1c(-c2ccc(O[C@H]3CCC[C@H](C(=O)O)C3)c(C(F)(F)F)n2)nnn1C` [Example 275, (1S,3S)-3-((6-(5-(((butyl(methyl)carbamoyl)oxy)methyl)-1-methyl-1H-1,2,3-triazol-4-yl)-2-(trifluoromethyl)pyridin-3-yl)oxy)cyclohexane-1-carboxylic acid], 5.6 nM.
Next, `CN(C(=O)OCc1c(-c2ccc(O[C@H]3CCC[C@H](C(=O)O)C3)c(C(F)(F)F)n2)nnn1C)C1CCCC1` [Example 276, (1S,3S)-3-((6-(5-(((cyclopentyl(methyl)carbamoyl)oxy)methyl)-1-methyl-1H-1,2,3-triazol-4-yl)-2-(trifluoromethyl)pyridin-3-yl)oxy)cyclohexane-1-carboxylic acid]: 15 nM; `CCCN(C)C(=O)OCc1c(-c2ccc(O[C@H]3CCC[C@H](C(=O)O)C3)c(C(F)F)n2)nnn1C` [Example 277, (1S,3S)-3-((2-(difluoromethyl)-6-(1-methyl-5-(((methyl(propyl)carbamoyl)oxy)methyl)-1H-1,2,3-triazol-4-yl)pyridin-3-yl)oxy)cyclohexane-1-carboxylic acid]: 35 nM.
Consider `CCCCN(C)C(=O)OCc1c(-c2ccc(O[C@H]3CCC[C@H](C(=O)O)C3)c(C(F)F)n2)nnn1C` [Example 278, (1S,3S)-3-((6-(5-(((butyl(methyl)carbamoyl)oxy)methyl)-1-methyl-1H-1,2,3-triazol-4-yl)-2-(difluoromethyl)pyridin-3-yl)oxy)cyclohexane-1-carboxylic acid], for which the IC50 came to 22 nM.
Take `CN(CC1CC1)C(=O)OCc1c(-c2ccc(O[C@H]3CCC[C@H](C(=O)O)C3)c(C(F)F)n2)nnn1C` [Example 279, (1S,3S)-3-((6-(5-((((cyclopropylmethyl)(methyl)carbamoyl)oxy)methyl)-1-methyl-1H-1,2,3-triazol-4-yl)-2-(difluoromethyl)pyridin-3-yl)oxy)cyclohexane-1-carboxylic acid]: the IC50 amounted to 21 nM.
With `CN(C(=O)OCc1c(-c2ccc(O[C@H]3CCC[C@H](C(=O)O)C3)c(C(F)F)n2)nnn1C)C1CCC1` [Example 280, (1S,3S)-3-((6-(5-(((cyclobutyl(methyl)carbamoyl)oxy)methyl)-1-methyl-1H-1,2,3-triazol-4-yl)-2-(difluoromethyl)pyridin-3-yl)oxy)cyclohexane-1-carboxylic acid], the IC50 is 22 nM.
Regarding `CN(C(=O)OCc1c(-c2ccc(O[C@H]3CCC[C@H](C(=O)O)C3)c(C(F)F)n2)nnn1C)C1CCCC1` [Example 281, (1S,3S)-3-((6-(5-(((cyclopentyl(methyl)carbamoyl)oxy)methyl)-1-methyl-1H-1,2,3-triazol-4-yl)-2-(difluoromethyl)pyridin-3-yl)oxy)cyclohexane-1-carboxylic acid], the IC50 was 35 nM.
Consider `CN(Cc1ccccc1)C(=O)OCc1c(-c2ccc(O[C@H]3CCC[C@H](C(=O)O)C3)c(C(F)F)n2)nnn1C` [Example 282, (1S,3S)-3-((6-(5-(((benzyl(methyl)carbamoyl)oxy)methyl)-1-methyl-1H-1,2,3-triazol-4-yl)-2-(difluoromethyl)pyridin-3-yl)oxy)cyclohexane-1-carboxylic acid], for which the IC50 is 19 nM.
As to `CCCN(C)C(=O)OCc1c(-c2ccc(O[C@H]3CCC[C@H](C(=O)O)C3)c(COC)n2)nnn1C` [Example 283, (1S,3S)-3-((2-(methoxymethyl)-6-(1-methyl-5-(((methyl(propyl)carbamoyl)oxy)methyl)-1H-1,2,3-triazol-4-yl)pyridin-3-yl)oxy)cyclohexane-1-carboxylic acid], the IC50 was 475 nM.
Turning to `CCCCN(C)C(=O)OCc1c(-c2ccc(O[C@H]3CCC[C@H](C(=O)O)C3)c(COC)n2)nnn1C` [Example 284], the IC50 was found to be 48 nM.
For the compound `COCc1nc(-c2nnn(C)c2COC(=O)N(C)CC2CC2)ccc1O[C@H]1CCC[C@H](C(=O)O)C1` [Example 285, (1S,3S)-3-((6-(5-((((cyclopropylmethyl)(methyl)carbamoyl)oxy)methyl)-1-methyl-1H-1,2,3-triazol-4-yl)-2-(methoxymethyl)pyridin-3-yl)oxy)cyclohexane-1-carboxylic acid], the IC50 worked out at 1010 nM.
For the compound `COCc1nc(-c2nnn(C)c2COC(=O)N(C)C2CCC2)ccc1O[C@H]1CCC[C@H](C(=O)O)C1` [Example 286, (1S,3S)-3-((6-(5-(((cyclobutyl(methyl)carbamoyl)oxy)methyl)-1-methyl-1H-1,2,3-triazol-4-yl)-2-(methoxymethyl)pyridin-3-yl)oxy)cyclohexane-1-carboxylic acid], the IC50 is 92 nM.
`COCc1nc(-c2nnn(C)c2COC(=O)N(C)C2CCCC2)ccc1O[C@H]1CCC[C@H](C(=O)O)C1` [Example 287, (1S,3S)-3-((6-(5-(((cyclopentyl(methyl)carbamoyl)oxy)methyl)-1-methyl-1H-1,2,3-triazol-4-yl)-2-(methoxymethyl)pyridin-3-yl)oxy)cyclohexane-1-carboxylic acid]: the IC50 is 118 nM.
For the compound `[2H]C([2H])([2H])N(CCC)C(=O)OCc1c(-c2ccc(O[C@H]3CCC[C@H](C(=O)O)C3)c(C)n2)nnn1C` [Example 288, (1S,3S)-3-((2-methyl-6-(1-methyl-5-((((methyl-d3)(propyl)carbamoyl)oxy)methyl)-1H-1,2,3-triazol-4-yl)pyridin-3-yl)oxy)cyclohexane-1-carboxylic acid], the IC50 turned out to be 29 nM.
For `CN(CC1CC1)C(=O)OCc1c(-c2ccc(O[C@H]3CCC[C@H](C(=O)O)C3)c(C#N)n2)nnn1C` [Example 289, (1S,3S)-3-((2-cyano-6-(5-((((cyclopropylmethyl)(methyl)carbamoyl)oxy)methyl)-1-methyl-1H-1,2,3-triazol-4-yl)pyridin-3-yl)oxy)cyclohexane-1-carboxylic acid], the IC50 stood at 40 nM.
On to `CN(Cc1ccccc1)C(=O)OCc1c(-c2ccc(O[C@H]3CCC[C@H](C(=O)O)C3)c(C#N)n2)nnn1C` [Example 290, (1S,3S)-3-((6-(5-(((benzyl(methyl)carbamoyl)oxy)methyl)-1-methyl-1H-1,2,3-triazol-4-yl)-2-cyanopyridin-3-yl)oxy)cyclohexane-1-carboxylic acid], for which the IC50 is 2 nM.
`CCCCN(C)C(=O)OCc1c(-c2ccc(O[C@H]3CCC[C@H](C(=O)O)C3)c(C#N)n2)nnn1C` [Example 291, (1S,3S)-3-((6-(5-(((butyl(methyl)carbamoyl)oxy)methyl)-1-methyl-1H-1,2,3-triazol-4-yl)-2-cyanopyridin-3-yl)oxy)cyclohexane-1-carboxylic acid]: the IC50 is 15 nM.
Consider `CN(CC1CCC1)C(=O)OCc1c(-c2ccc(O[C@H]3CCC[C@H](C(=O)O)C3)c(C#N)n2)nnn1C` [Example 292, (1S,3S)-3-((2-cyano-6-(5-((((cyclobutylmethyl)(methyl)carbamoyl)oxy)methyl)-1-methyl-1H-1,2,3-triazol-4-yl)pyridin-3-yl)oxy)cyclohexane-1-carboxylic acid], for which the 50% inhibitory concentration (IC50) was determined as 20 nM.

As usually defined, the IC50 is the concentration at which inhibition is half-maximal.
